The record followed here is article PMC8362126, “Proteolysis Targeting Chimera (PROTAC) for Macrophage Migration Inhibitory Factor (MIF) Has Anti‐Proliferative Activity in Lung Cancer Cells” (Angewandte Chemie (International Ed. in English), 2021).

The inhibition is the percentage by which the read-out fell short of the control. The Dmax is the greatest extent of degradation seen. As usually defined, the DC50 is the concentration at which degradation of the target reaches its halfway point.

One test has as its system A549 cell spheroids. In words: 3D tumor spheroid assay. The class given is cell-based, human. As to conditions: 12 days; for influence on spheroid tumor growth: 5 μM. How it is done: A 3D spheroid model was employed to investigate the effect of longer term MD13 treatment in a more complex model for tumor growth. The 3D spheroid model was established using A549 cancer cells by a method adapted from Feng et al.[48] The spheroids were grown over a 12‐day period in absence or presence of PROTAC MD13. Each spheroid was prepared from about 1000 A549 cells. After three‐day incubation, these spheroids were treated with 1, 2, or 5 μM of MD13 with 72 hours intervals over 12 days. Spheroid growth was monitored by measuring the diameter and this was compared to day 0 of the treatment. The tumor spheroids in MD13 treated groups were significant smaller compared to the control group (Figure 5 B and Figure S9). With continuous exposure to 1, 2, or 5 μM of MD13 for 12 days, the growth of the spheroid tumor volume was inhibited by 42 %, 53 %, and 81 % compared with control group, respectively. […]
Tumor spheroid assay. A549 cells (1000 cells/well) were seeded onto a 96-well round-bottomed ultra low attachment plate (Corning). After 2 days of incubation without disturbance, the spheroid was treated with indicated compound every 3 days. […]
(1 picture or pasted object on this page, not shown here) […]
inverted microscope (Nikon Eclipse Ti) connected with a NIS-elements software. The data were analyzed and plotted with Graphpad Prism8. […]
cells were seeded in an ultralow attachment 96-well round-bottomed plate (1000 cells/well) to generate tumor spheroids (a single spheroid per well). After initiation, the spheroids were treated with different compounds at the indicated concentrations every three days. DMSO was used as vehicle control. The day of the first treatment was indicated as day 0. (A) Representative images were obtained at the indicated intervals using an inverted microscope. Scale bar: 500 μm. (B) Analysis was carried out using NIS-Elements AR 3.1 software, and growth curves were obtained relative to the untreated spheroids (day 0) and plotted with GraphPad Prism 8. Values are shown as means ± SD (n = 3 spheroids/time point, **p < 0.01 vs control). […]

For the next test, the system named is ERK phosphorylation. As to the kind of experiment: ERK phosphorylation by western blot. The conditions noted are these: A549, 2 μM; for effect on pERK levels: 3 and 4 for 24 h, MD15 for 6, 24 or 48 h. The class given is cell-based, human. How it is done:
The effect of treatment with MIF‐directed PROTAC MD13 on MIF‐related signaling pathways was investigated by assessment of ERK phosphorylation using western blot analysis. […] Thus treatment with the MIF‐directed PROTAC MD13 inhibits ERK phosphorylation as a MIF‐related signaling event. […]
ERK signaling pathway study. A549 cells (2x10^5 cells per well) were seeded into each well of a 6-well plate with 2 mL RPMI-1640 medium containing 10% FBS (Costar Europe, Badhoevedorp, The Netherlands), and 1% penicillin/streptomycin solution (Corning). After overnight culturing, the cells were treated with MD13, MD15, or DMSO for the time indicated.
After that, cells were lysed by RIPA buffer containing 1× PhosSTOP and protease inhibitor (PI) cocktail (Roche, Mannheim, Germany). The BCA Protein Assay Kit (Pierce, Rockford IL, USA) was used to determine the protein concentration. 30 µg protein was separated by a pre-cast 10% NuPAGE Bis-Tris gel (Invitrogen, USA) and then transferred to a polyvinylidene difluoride (PVDF) membrane. After blocking with 5% of skimmed milk for 1 hour at room temperature and incubation with the appropriate primary antibody (pERK, #9101, Cell Signaling, 1:1000; GAPDH, #97166, Cell Signaling, 1:10000) overnight at 4 °C, the membrane was treated with an HRP-conjugated secondary goat anti-rabbit antibody (#P0448, Dako, 1:2000) or rabbit anti-mouse antibody (#P0260, Dako, 1:2000) at room temperature for 1 hour.
The protein bands were visualized with enhanced chemiluminescence (ECL) solution (GE Healthcare). The figures were quantified with imageJ software based on grayscale. […]
(In general: A western blot detects proteins with antibodies after separation by electrophoresis.)

Another test concerns the target T1, MIF (Homo sapiens, UniProt P14174).
T1 sequence (P14174 2-115 limits assumed): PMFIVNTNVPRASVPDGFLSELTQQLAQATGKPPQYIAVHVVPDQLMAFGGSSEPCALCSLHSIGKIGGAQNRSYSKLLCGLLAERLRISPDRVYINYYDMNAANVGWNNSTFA
In words: MIF degradation in A549 cells, western-blot. Type of test: cell-based. The arrangement: endogenous in cells; host or cells: A549 (ATCC CCL-185). The protocol: The concentration dependence of PROTAC MD13‐mediated induction of MIF degradation in A549 cells was investigated using western‐blot. […] The MIF levels were normalized to the vehicle treated control and plotted to the respective MD13 concentrations. This provided a DC50 of around 100 nM and a maximal degradation of around 90–95 % at concentrations higher than 1 μM (Figure 3 B). The DC50 of MD13 measured by ELISA assay was about 200 nM (Figure 3 C), which is in line with the result from western‐blot. […]
Cell lysates were prepared using the protocol described above. About 10−40 μg of total protein was mixed with the 4× Laemmli Loading Dye (250 mM Tris, pH 6.8, 40% glycerol, 5% SDS, 0.005% bromophenol blue, 4% β-mercaptoethanol) and heated at 95−100 °C for 5 min and loaded onto a 12% Bis-Tris gel (Bio-Rad Laboratories, #4561084) and proteins were separated at 120V. Afterwards, proteins were transferred to polyvinylidene fluoride (PVDF) membranes, subsequently non-specific antibody binding was blocked with 5% nonfat dry milk (BIO-RAD, #1706404) in TBST buffer and incubated overnight at 4 °C with one of the following primary antibodies: anti-MIF (1:1000, ThermoFisher, #PA5-27343 ) or anti-β-actin (1:10000 Cell Signalling, #8457). The membranes were further incubated with a goat anti-rabbit HRP-conjugated secondary antibody (1:2000, DAKO, p0448) for 2 h at room temperature. Proteins were visualized with an ECLTM Prime Western Blotting System (GE Healthcare #RPN2232). The immunoblot was generated by ChemiDoc MP Imaging Systems (Bio-Rad) and analyzed by the ImageJ software. […]
As a control, the same experiment was repeated and analyzed by a western-blot assay (Figure 3B). The potency estimated from the Western blot assay was 1 µM (Figure 3C), which is consistent with the result from the ELISA assay. The “Hook effect” […]

Structures are written as SMILES. Several values for one entry are separate records, joined by “and”; a condition that tells them apart may be missing. Equal entries are not always repeated. Entries after “also recorded” stand apart in the source; their conditions may differ.

With `CN1C(=O)CCC(N2C(=O)c3cccc(NCCCCCCCC(=O)Nc4ccc(N5Cc6ccc(O)cc6OC5=O)cc4)c3C2=O)C1=O` (stereo not drawn) [MD15], the “influence on spheroid tumor growth” value with A549 cell spheroids is on record as “no significant influence”. For the same compound, in the test on ERK phosphorylation, the “effect on pERK levels” value was “no significant decrease”. Also, the “effect on MIF level relative to control” value at MIF (A549 cells, 12 hours, inactive control experiment) was “not able to reduce the MIF levels; also recorded: no effect on MIF protein level”.

For `COc1ccc(N2Cc3ccc(O)cc3OC2=O)cc1OC` [compound 3], the “influence on spheroid tumor growth” value with A549 cell spheroids was “no significant influence”. Also, the “effect on pERK levels” value in the test on ERK phosphorylation is listed as “no significant decrease”. Moreover, the “rescue of MD9 mediated MIF degradation” value at MIF (A549 cells, 2 hours pretreatment (1 100 µM, 3 50 µM, 4 50 µM, Bortezomib), then 10 µM MD9 12 h) is on record as “partial to complete rescue; also recorded: rescued”. Also, on MIF (A549 cells, co-treatment (Bortezomib) or 1 hour pretreatment (3, 4) with MD13), the “rescue of MD13 mediated MIF degradation” value is reported as “rescued MIF from degradation; also recorded: able to abolish the MD13 triggered degradation”.

Take `O=C1CCC(N2C(=O)c3cccc(NCCCCCCCC(=O)Nc4ccc(N5Cc6ccc(O)cc6OC5=O)cc4)c3C2=O)C(=O)N1` (stereo not drawn) [MD13]: the inhibition at 1 µM in the test with A549 cell spheroids (Homo sapiens, A549, 1 μM, treated every three days, read-out: inhibition of growth of spheroid tumor volume) is 42%. The inhibition at 2 µM was 53% in the test on A549 cell spheroids (Homo sapiens, A549, 2 μM, treated every three days, read-out: inhibition of growth of spheroid tumor volume) and roughly 50% with ERK phosphorylation (Homo sapiens, 24-hour treatment). In addition, in the test on A549 cell spheroids (Homo sapiens, A549, 5 μM, treated every three days, read-out: inhibition of growth of spheroid tumor volume), the inhibition at 5 µM was found to be 81%. For the same compound, at MIF (A549, A549 cells, 12 h, western-blot, concentrations higher than 1 μM, read-out: maximal degradation (Dmax)), the Dmax is 90 to 95%. Besides, the “reduction of MIF protein levels within 3 hours” value on MIF (A549 cells, 3 hours) is on record as “about 80%”. Moreover, the “maximal degradation (Dmax)” value at MIF (A549 cells, 12 h, western-blot, concentrations higher than 1 μM) was greater than 90%. The DC50 on MIF (A549 cells, 12 h, western-blot, read-out: DC50) is ~100 nM and < 100 nM. Besides, the “recovery of the MIF levels after 48 h” value on MIF (A549 cells, 48 h) was “slight recovery”. Besides, the “MIF degradation after 6 h” value at MIF (A549 cells, time course, 6 h) is greater than 92%. Further, the “time of treatment after which MIF degradation becomes visible” value at MIF (A549 cells, MD9 at 10 μM) was 3 h.
